The values that follow come from a melting point compilation (Tetko et al.; mined from patent text by program, amines drawn as free bases though some values may be those of a salt).

`CC12C=CCC1C1CCC3CC(O)CCC3C1CC2` (configuration not stated): the melting point was 113 to 115 °C. As for `CC1Cc2cc3c(cc2C(c2ccc([N+](=O)[O-])cc2)=NN1C(=S)NC(=O)NC1CC1)OCO3` (configuration not stated), the figure is 281 to 283 °C; as for `COC1CCc2oc3ccc(Br)cc3c(=O)c2C1` (configuration not stated), 139 to 142 °C. As for `O=C(O)C(=O)c1ccc(OCc2ccccc2)cc1`, the figure is 97 to 98 °C; as for `CCCNCc1cnc2c(C)c(NC(=O)c3ccc(OC[C@@H]4CCCO4)cc3F)ccc2c1`, 120 to 121 °C.

`CCCCN(CCCC)C(=O)c1cc2ccccc2c(-c2ccccc2)n1` had a melting point of 62 °C. As for `COc1ccc2cc(C(=O)C(C)O[Si](C)(C)C)ccc2c1` (configuration not stated), the figure is 72 to 75 °C; as for `COc1ccc2c(c1)C(=O)N(c1ccc3c(cnn3C)c1)C2`, 213 to 214 °C; as for `CCC(C(=O)OC)(C(=O)OC)C(Cc1cc(Cl)ccc1[N+](=O)[O-])c1ccc(OC)cc1` (configuration not stated), 95.5 to 97 °C. Then `N#Cc1ccc(N(Cc2ccc(OS(N)(=O)=O)cc2)n2cnnc2)cc1-c1ccco1`, with 177 to 178 °C. Molecule `CC(=O)OC1CC(C)(C)N(OC(=O)C=Cc2ccccc2)C(C)(C)C1` registered a melting point of 130 to 132 °C. Take `COC(=O)CCc1ccc(-n2ncn(-c3ccc(C(=N)NC(=O)OC)cc3)c2=O)cc1`: the melting point was 296 to 298 °C. Consider `O=C(O)CC(CC(=O)Nc1cc(OCC=C(Cl)Cl)c(Cl)cc1F)C(F)(F)F` (configuration not stated), for which the melting point fell in the range of 117 to 118 °C. As for `CC(O)C1(c2cccc(Cl)c2)CCN(C)CC1` (configuration not stated), the figure is 125 to 126 °C; as for `CCc1noc(-c2cn(-c3cccc(Cl)c3)cn2)n1`, 134 to 135 °C.

Take `Cc1nc(-n2cc(-c3ccc(OCc4ccccc4)cc3)nn2)sc1C(=O)NCc1ccccc1`: the melting point lay within 237 to 240 °C. `CCCCCCCCCCCCCCCCN(C(=O)C(F)(F)F)c1ccc(C(=O)Nc2ccc(C(=O)OCC)cc2)cc1` gave a melting point of 91 to 93 °C.

With `CCOC(=O)Cn1c(=O)sc2cc(-c3ccccc3)c(Cl)cc21`, the melting point was 130 to 131 °C. As for `COC(=O)/C(=C/c1ccc(OCc2ccccc2)c([N+](=O)[O-])c1)N=[N+]=[N-]`, the figure is 95 to 96 °C.

Molecule `Nc1ccc([N+](=O)[O-])cc1S(=O)(=O)N1CCOCC1` showed a melting point of 204 to 206 °C.

`COc1cc(COc2cc(CC#N)n(-c3ccccc3)n2)ccc1OCc1nc(-c2ccco2)oc1C` returned a melting point of 141 to 142 °C.

For the molecule `CCN(CC)Cc1nc(-c2ncn3c2CN(C)C(=O)c2cc(F)ccc2-3)no1`, the melting point lay within 172 to 174 °C. Then `CO/C(=C\C=C\c1cc2ccccc2[nH]1)C(=O)O`, with 189 to 190 °C; and `O=c1nc(O)ccc2ccccc12`, with 129 to 131 °C; and `CN1CCC(OC(c2cccc(N=[N+]=[N-])c2)c2nc3ccccc3[nH]2)CC1` (configuration not stated), with 53 °C. As for `COc1ccccc1NC(=O)Nc1ccc(N2CCN(C(=O)Nc3cc(OCCO)ccc3Cl)CC2)cc1`, the figure is 179 to 180 °C. Molecule `c1ccc2c(c1)Cc1ccccc1N2` returned a melting point of 170 to 171 °C. Then `Cc1cc(N2CCN(Cc3ccc(F)cc3)C2=O)sc1C(=O)NCc1nc2ccccc2[nH]1`, with 265 to 267 °C. Consider `COc1ccc(CCC2SC(=O)NC2=O)c2ccc(=O)n(C)c12` (configuration not stated), for which the melting point fell in the range of 222 to 224 °C. As for `Cc1ccc(O)c2c1CCC1C2CCC2(C)C(O)CCC12` (configuration not stated), the figure is 226 to 229 °C; as for `CCOC(=O)c1ccc(-c2csc(-c3ccccc3)n2)cc1`, 72 to 73 °C; as for `COC(=O)[C@H]1C[C@H](C(=O)O)Nc2cc(Br)cc(Br)c21` (relative stereo), 171 to 173 °C. Then `O=C1CC(c2ccc(O)cc2)Cc2ccccc21` (configuration not stated), with 194 to 195 °C; and `Cc1[nH]c(C(=O)N2CCC(C(=O)NCCCN(C)C)CC2)c(C)c1-c1nc2ccc(C(=O)c3ccccc3)cc2[nH]1`, with 247 to 251 °C.

Molecule `CC(C)c1cccc(C(C)C)c1NC(=O)[C@H](C)N` showed a melting point of 118 to 122 °C. Regarding `CCCCCCCCOC(=O)C1=CC(=O)C(C(=O)OCCCCCCCC)=C(S(=O)(=O)c2ccc(C)cc2)C1=O`, the melting point is 75 to 77 °C.

`CCCc1c(OCC(O)COc2ccc3c(=O)cc(C=CC(=O)O)oc3c2CCC)ccc(C(C)=O)c1O` (configuration not stated) registered a melting point of 101 to 103 °C. As for `O=C(/C=C/C=C(c1ccc(C(F)(F)F)cc1)c1ccc(C(F)(F)F)cc1)Nc1cccc2cnccc12`, the figure is 164 to 166 °C.

In the case of `O=C(c1cc2cc([N+](=O)[O-])ccc2[nH]1)N1CCC(Cc2ccccc2)CC1`, the melting point lay within 220 to 224 °C.

`COC(=O)NCC(=CF)c1ccccc1` registered a melting point of 73 to 74 °C. As for `Cn1nc(-c2c(Nc3ccccc3)nc(N)nc2-c2ccccc2)ccc1=O`, the figure is 252 to 254 °C; as for `Cc1nc(N)nc(N)c1/C=C/C(C)(C)c1ccc(C(F)(F)F)cc1`, 182 to 185 °C. Then `O=C1OC(=O)c2cc3ccc([N+](=O)[O-])cc3c3cccc1c23`, with 290 °C; and `CCN1C(=O)C(=C2Oc3ccccc3N2CC)SC1=S`, with 165 to 166 °C.

On to `CCOC(=O)COc1c(C)c(C(F)(F)F)nc(C(F)(F)F)c1C(=O)OCC`, for which the melting point was in the range of 42 to 44 °C. The molecule `CCn1nc2c(N)nc3ccccc3c2c1CC(C)(C)NS(C)(=O)=O` showed a melting point of 229 to 230 °C.

Consider `NS(=O)(=O)c1cc(C(=O)NN(c2ccccc2)C2CCCCC2)ccc1Cl`, for which the melting point is 216 to 217 °C.

Molecule `CC(C)CCC1CCCCc2c1oc(=O)c(C(c1ccccc1)C1CC1)c2O` (configuration not stated) registered a melting point of 67 to 77 °C. Then `COc1cccc(NC(=O)c2cc(-c3ccc(F)cc3F)ccc2O)c1`, with 187 to 188 °C; and `O=C(NCCCCN1CCC(c2csc3ccccc23)CC1)c1ccc(-c2ccc(C(F)(F)F)cc2)cc1`, with 264 °C. As for `O=[N+]([O-])c1cccc(-c2nc(-c3ccccc3)cc3cccnc23)c1`, the figure is 172 to 175 °C; as for `CCCc1nc2c(N)nc3ccccc3c2n1CCCCNC(=O)Nc1ccccc1`, 183 to 184 °C; as for `CCc1c(CC(C)(C)C(=O)O)ccc2c1OCO2`, 73 to 74 °C. As for `COC(=O)CSc1nc(N2CCN(c3ncccn3)CC2)ncc1[N+](=O)[O-]`, the figure is 250 to 252 °C; as for `Fc1ccc(C2(Cn3nc[nH]c3=S)OC2c2ccccc2Cl)cc1F` (configuration not stated), 165 °C; as for `CC(=O)Nc1nc2c(s1)C(=O)CCC2`, 268 to 272 °C.

Turning to `COc1ccc2c(c1)C(=C1CCN(C)CC1)c1ccccc1C=C2`, the melting point is 112 to 114 °C.

Turning to `Cc1csc(C)c1S(N)(=O)=O`, the melting point came to 135 °C. Then `CN1CCN(C(=O)Nc2c(C(=O)c3ccccc3)[nH]c3cc(Cl)ccc23)CC1`, with 168 to 170 °C; and `COc1cc2c3c(cccc3c1)C(=O)N(O)C2=O`, with 236 to 239 °C.

On to `O=C(Cc1ccccc1Cl)c1ccc(I)cc1`, for which the melting point was in the range of 105 to 106 °C. For the molecule `O=C(C=Cc1ccc(F)cc1)c1cccs1`, the melting point is 117 to 120 °C.

As a reminder, the melting point is the temperature of the solid-liquid transition.
